This is an account of results in patent publication US10550117B2, “2-azabicyclo[3.1.0]hexan-3-one derivatives and methods of use” (Genentech, Inc., priority 2016, dated 2020).

In data set [1] the target is nuclear factor-kappa B (NF-kB)-inducing kinase (NIK) (Homo sapiens (Human), UniProt Q99558). In words: NIK enzyme inhibition assay (Transcreener ADP fluorescence polarization). In kind it is biochemical. The note with it: for NIK enzyme inhibition, potency in words relative to the other stereoisomers: stereoisomers separated by chiral SFC, qualitative; for Ki: purified NIK 0.5 nM, 10 μM ATP, Morrison equation, read-out: NIK ADP-FP Ki. As for the experimental part:
The ability of the nuclear factor-kappa B (NF-kB)-inducing kinase (NIK) to catalyze the hydrolysis of adenosine-5′-triphosphate (ATP) was monitored using the Transcreener ADP (adenosine-5′-diphosphate) assay (BellBrook Labs). […] Reactions were quenched by the addition of 20 mM 2,2′,2″,2′″-(ethane-1,2-diyldinitrilo)tetraacetic acid and 0.01% Brij 35. The tracer bound to the antibody was displaced by the ADP generated during the NIK reaction, which causes a decrease in fluorescence polarization that was measured by laser excitation at 633 nm with a Fluorescence Correlation Spectroscopy Plus reader (Evotec AG). Equilibrium dissociation constant (Ki) values for NIK inhibitors are calculated from plots of activity vs. inhibitor concentration using Morrison's quadratic equation that accounts for the potential of tight binding, and by also applying the conversion factor that accounted for competitive inhibition and the concentration of substrate used in the assay relative to its Michaelis constant (Km).
Background: In fluorescence polarisation assays a small probe gives low polarisation when free and higher when bound to something large.

Data set [2] concerns REL-A (p65) nuclear translocation in HeLa cells. In words: REL-A HeLa nuclear translocation assay (TNF-α stimulated, high content imaging). In kind it is cell-based. The note with it: Homo sapiens, 10 ng/mL TNF-α. As for the experimental part:
(§1) (3) A third set of cell assays are used to define the selectivity of NIK inhibitors toward inhibition of classical vs. non-classical NF-kB signaling and rely on quantification of the nuclear translocation of p52 (NF-kB2) and REL-A (p65) using high content cellular imaging. For the p52 (non-classical NF-kB signaling) nuclear translocation assay, HeLa cells are treated with different concentrations of compounds (0.2% DMSO final) in medium containing 10% fetal bovine serum and then stimulated with 100 ng/mL of an anti-lymphotoxin beta receptor antibody (R&D Systems) for 5 hours. In the REL-A nuclear translocation assay, HeLa cells are incubated with compounds (0.2% DMSO final) for 4.5 hours in medium containing 10% fetal bovine serum before stimulating them with 10 ng/mL tumor necrosis factor (TNF)-α (R&D Systems) for 30 minutes. Cells are fixed with 4% paraformaldehyde, permeabilized by adding 0.1% Triton X-100 in phosphate buffered saline, and then are incubated with either 2 μg/mL anti-p52 antibody (Millipore) or 400 ng/mL anti-REL-A (p65) antibody (Santa Cruz Biotechnology). Finally, the cells are incubated with an Alexa488-labeled secondary antibody (Invitrogen) and DRAQ5 DNA stain (Biostatus). Imaging is carried out using an Opera reader (Perkin Elmer) and data are analyzed with the aid of Acapella software (Perkin Elmer). The p52 or REL-A translocation into the nucleus is quantified by the ratio of the nuclear to cytoplasmic signal intensity. […] The test compounds have the corresponding inhibitory values (IC50) for NIK REL-A (p65) and p52 Translocation Assays as set forth in Table B2.

Data set [3] deals with p52 (NF-kB2) nuclear translocation in HeLa cells. In words: p52 HeLa nuclear translocation assay (anti-lymphotoxin beta receptor antibody stimulated). The data set is classed as cell-based. The note with it: Homo sapiens, 100 ng/mL anti-lymphotoxin beta receptor antibody. As for the experimental part: as §1
A short description of another data set: Hepatocyte stability. In kind it is in vitro ADME. The note with it: human hepatocytes. As for the experimental part:
General. Metabolic stability assays in hepatocytes are conducted using cryopreserved pooled female CD-1 mouse, male Sprague-Dawley rat, male beagle dog, male cynomolgus monkey, and mixed male and female human hepatocytes (CellzDirect). Vials of hepatocytes are thawed rapidly in a water bath set at 37° C. and then are diluted with Dulbecco's modified Eagle's medium (DMEM), pH 7.4. Cells are isolated by centrifugation, pooled, and resuspended in DMEM at 1.0 million viable cells/ml. Membrane integrity of the cells is assessed by trypan blue exclusion. The test compound is dissolved in dimethyl sulfoxide at a final concentration of 10 mM. This test compound stock is diluted further to 2 μM in DMEM (125 μl) before the addition of an equal volume of the 10^6 cells/ml cell suspension. The test compound (final incubation concentration of 1.0 μM with 0.1% dimethyl sulfoxide) and cells (final concentration of 0.5×10^6 cells/ml) are incubated at 37° C. in a 95% air/5% CO2 atmosphere for 3 h. Aliquots (50 μl) are removed at 0, 1, 2, and 3 hours and added to termination mixtures (100 μl) containing acetonitrile and an internal standard. The samples are then centrifuged for 10 min at 2000 g. The supernatant (90 μl) is removed, combined with 180 μl of water, and analyzed by LC-MS/MS.
Metabolic stability of the test compounds were evaluated also in human hepatocytes, following protocols described in Hallifax, et al. Drug Metabol. Disposition, 2005, 33:1852-1858.

A short description of data set [4]: Liver microsome stability. The data set is classed as in vitro ADME. The note with it: for HLM CL (human liver microsome clearance): human liver microsomes; for stability in human liver microsomes versus the corresponding pyrrolidinone comparator compound: qualitative comparison. As for the experimental part:
Metabolic stability assays in liver microsomes are conducted with pooled female CD-1 mouse, male Sprague-Dawley rat, male beagle dog, male cynomolgus monkey, and mixed male and female human liver microsomal incubations. The general assay conditions are as follows. Incubation mixtures consisted of liver microsomes (0.5 mg of microsomal protein/ml) and the test compound (1.0 μM) with or without NADPH (1.0 mM) in the potassium phosphate buffer (100 mM; pH 7.4) with a final incubation volume of 0.25 ml. Reactions are initiated by the addition of NADPH or buffer and shaken in a water bath open to the air at 37° C. At times 0, 20, 40, and 60 min, aliquots (50 μl) are removed and added to termination mixtures (100 μl) containing acetonitrile and an internal standard. The samples are then centrifuged for 10 min at 2000 g. The supernatant (90 μl) is removed, combined with 180 μl of water, and analyzed by LC-MS/MS.
Metabolic stability of the test compounds were evaluated in human liver microsomes following known protocols described in Halladay, et al. Drug Metabol. Lett. 2007, 1:67-72.
For orientation: Microsomes from liver hold many membrane-bound enzymes, among them those of drug oxidation.

nuclear factor-kappa B (NF-kB)-inducing kinase (NIK), sequence (Q99558 whole entry): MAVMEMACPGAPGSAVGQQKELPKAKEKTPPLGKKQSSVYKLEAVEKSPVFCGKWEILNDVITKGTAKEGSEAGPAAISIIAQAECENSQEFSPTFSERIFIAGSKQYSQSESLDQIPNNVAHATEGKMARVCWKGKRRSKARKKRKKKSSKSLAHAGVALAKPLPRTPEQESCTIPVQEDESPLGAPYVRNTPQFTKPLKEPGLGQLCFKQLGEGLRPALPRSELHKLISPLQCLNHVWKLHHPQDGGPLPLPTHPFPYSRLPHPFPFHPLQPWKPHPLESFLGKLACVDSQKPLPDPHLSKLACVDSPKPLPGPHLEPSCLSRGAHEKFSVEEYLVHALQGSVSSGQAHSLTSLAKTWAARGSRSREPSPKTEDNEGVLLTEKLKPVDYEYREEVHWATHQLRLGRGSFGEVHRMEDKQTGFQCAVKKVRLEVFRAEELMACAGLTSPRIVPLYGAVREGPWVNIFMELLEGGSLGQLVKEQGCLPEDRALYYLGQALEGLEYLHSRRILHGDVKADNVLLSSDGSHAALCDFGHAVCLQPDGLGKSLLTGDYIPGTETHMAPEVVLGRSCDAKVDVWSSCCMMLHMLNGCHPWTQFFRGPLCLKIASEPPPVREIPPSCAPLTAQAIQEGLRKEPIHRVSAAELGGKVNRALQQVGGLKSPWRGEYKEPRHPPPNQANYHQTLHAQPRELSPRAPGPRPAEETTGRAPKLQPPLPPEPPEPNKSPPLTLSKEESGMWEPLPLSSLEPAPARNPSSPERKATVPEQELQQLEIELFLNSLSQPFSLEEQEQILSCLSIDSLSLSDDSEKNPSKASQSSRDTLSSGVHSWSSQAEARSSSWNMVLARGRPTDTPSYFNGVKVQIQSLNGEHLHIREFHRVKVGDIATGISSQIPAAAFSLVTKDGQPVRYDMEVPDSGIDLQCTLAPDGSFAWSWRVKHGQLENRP

For the compound `CN1C(=O)[C@](O)(C#Cc2cccc(-c3nc(C(N)=O)n4ccccc34)c2)[C@@H]2C[C@@H]21` [1-(3-(((1 S,4R,5R)-4-hydroxy-2-methyl-3-oxo-2-azabicyclo[3.1.0]hexan-4-yl)ethynyl)phenyl)imidazo[1,5-a]pyridine-3-carboxamide], the “NIK enzyme inhibition, potency in words relative to the other stereoisomers” value in data set [1] is given as “second most potent NIK enzyme inhibitor among the 4 stereoisomers”.
Turning to `CN1C(=O)[C@](O)(C#Cc2cccc(-c3nc(C(N)=O)c4ccccn34)c2)[C@@H]2C[C@@H]21` [3-(3-(((1 S,4R,5R)-4-hydroxy-2-methyl-3-oxo-2-azabicyclo[3.1.0]hexan-4-yl)ethynyl)phenyl)imidazo[1,5-a]pyridine-1-carboxamide], the “NIK enzyme inhibition, potency in words relative to the other stereoisomers” value in data set [1] is recorded as “second most potent NIK enzyme inhibitor among the 4 stereoisomers”.
`CN1CC[C@@](O)(C#Cc2cccc(-c3nc(C(N)=O)c4ccccn34)c2)C1=O` [Compound C-5]: the IC50 in data set [2] was above 20000 nM; in data set [3], 240 nM.
On to `COc1ccn2c(C(N)=O)nc(-c3cccc(C#C[C@]4(O)C(=O)N(C)[C@H]5C[C@H]54)c3)c2c1` [1-(3-(((1S,4S,5R)-4-hydroxy-2-methyl-3-oxo-2-azabicyclo[3.1.0]hexan-4-yl)ethynyl)phenyl)-7-methoxyimidazo[1,5-a]pyridine-3-carboxamide], for which the “NIK enzyme inhibition, potency in words relative to the other stereoisomers” value in data set [1] was “no measurable inhibition”.
Consider `CN1C(=O)[C@](O)(C#Cc2cccc(-c3nc(C(N)=O)c(N)s3)c2)[C@H]2C[C@H]21` [Compound 6, 5-amino-2-(3-(((1R,4R,5S)-4-hydroxy-2-methyl-3-oxo-2-azabicyclo[3.1.0]hexan-4-yl)ethynyl)phenyl)thiazole-4-carboxamide], for which the “Hep CL (human hepatocyte clearance)” value in the data set “Hepatocyte stability” is 2.7 mL/min/kg. Moreover, in data set [1], the Ki came to 0.05 nM and the “NIK enzyme inhibition, potency in words relative to the other stereoisomers” value is on record as “most potent NIK enzyme inhibitor among the 4 stereoisomers”. Also, in data set [4], the “HLM CL (human liver microsome clearance)” value is on record as 1.6 mL/min/kg and the “stability in human liver microsomes versus the corresponding pyrrolidinone comparator compound” value is on record as “better stability”.
On to `CN1C(=O)[C@@](O)(C#Cc2cccc(-n3nc(C(N)=O)c4cccnc43)c2)[C@@H]2C[C@@H]21` [1-(3-(((1 S,4S,5R)-4-hydroxy-2-methyl-3-oxo-2-azabicyclo[3.1.0]hexan-4-yl)ethynyl)phenyl)-1H-pyrazolo[3,4-b]pyridine-3-carboxamide], for which the “NIK enzyme inhibition, potency in words relative to the other stereoisomers” value in data set [1] is “no measurable inhibition”.
`CN1C(=O)[C@@](O)(C#Cc2cccc(-c3nc(C(N)=O)n4ccccc34)c2)[C@H]2C[C@H]21` [1-(3-(((1R,4S,5S)-4-hydroxy-2-methyl-3-oxo-2-azabicyclo[3.1.0]hexan-4-yl)ethynyl)phenyl)imidazo[1,5-a]pyridine-3-carboxamide]: in data set [1], the “NIK enzyme inhibition, potency in words relative to the other stereoisomers” value is “third most potent NIK enzyme inhibitor among the 4 stereoisomers”.
On to `CN1CC[C@@](O)(C#Cc2cccc(-n3nc(C(N)=O)c4cccnc43)c2)C1=O` [Compound C-1], for which the IC50 is above 20000 nM in data set [2] and 79.5 nM in data set [3].
On to `COc1ccn2c(C(N)=O)nc(-c3cccc(C#C[C@@]4(O)C(=O)N(C)[C@@H]5C[C@@H]54)c3)c2c1` [Compound 4, 1-(3-(((1R,4R,5S)-4-hydroxy-2-methyl-3-oxo-2-azabicyclo[3.1.0]hexan-4-yl)ethynyl)phenyl)-7-methoxyimidazo[1,5-a]pyridine-3-carboxamide], for which, in data set [1], the inhibition constant Ki came to 0.05 nM and the “NIK enzyme inhibition, potency in words relative to the other stereoisomers” value is “most potent NIK enzyme inhibitor among the 4 stereoisomers”. In data set [4], the “HLM CL (human liver microsome clearance)” value came out at 12 mL/min/kg and the “stability in human liver microsomes versus the corresponding pyrrolidinone comparator compound” value is “better stability”.
With `COc1ccn2c(C(N)=O)nc(-c3cccc(C#C[C@]4(O)C(=O)N(C)[C@@H]5C[C@@H]54)c3)c2c1` [1-(3-(((1R,4S,5S)-4-hydroxy-2-methyl-3-oxo-2-azabicyclo[3.1.0]hexan-4-yl)ethynyl)phenyl)-7-methoxyimidazo[1,5-a]pyridine-3-carboxamide], the “NIK enzyme inhibition, potency in words relative to the other stereoisomers” value in data set [1] is given as “third most potent NIK enzyme inhibitor among the 4 stereoisomers”.
The same measure, in the same setting: next, `CN1C(=O)C(O)(C#Cc2cccc(-c3nc(C(N)=O)c(N)s3)c2)C2CC21` (single isomer, unassigned) [5-amino-2-(3-((4-hydroxy-2-methyl-3-oxo-2-azabicyclo[3.1.0]hexan-4-yl)ethynyl)phenyl)thiazole-4-carboxamide]: “less potent NIK enzyme inhibitor than Compound 6”; `CN1C(=O)[C@@](O)(C#Cc2cccc(-c3nc(C(N)=O)c4ccccn34)c2)[C@@H]2C[C@@H]21` [3-(3-(((1S,4S,5R)-4-hydroxy-2-methyl-3-oxo-2-azabicyclo[3.1.0]hexan-4-yl)ethynyl)phenyl)imidazo[1,5-a]pyridine-1-carboxamide]: “third most potent NIK enzyme inhibitor among the 4 stereoisomers”.
Same read-out and setting: under `CN1C(=O)[C@@](O)(C#Cc2cccc(-n3nc(C(N)=O)c4cccnc43)c2)[C@H]2C[C@H]21` [1-(3-(((1R,4S,5S)-4-hydroxy-2-methyl-3-oxo-2-azabicyclo[3.1.0]hexan-4-yl)ethynyl)phenyl)-1H-pyrazolo[3,4-b]pyridine-3-carboxamide] stands “no measurable inhibition”; under `COc1ccn2c(C(N)=O)nc(-c3cccc(C#C[C@@]4(O)C(=O)N(C)[C@H]5C[C@H]54)c3)c2c1` [1-(3-(((1 S,4R,5R)-4-hydroxy-2-methyl-3-oxo-2-azabicyclo[3.1.0]hexan-4-yl)ethynyl)phenyl)-7-methoxyimidazo[1,5-a]pyridine-3-carboxamide], “second most potent NIK enzyme inhibitor among the 4 stereoisomers”; under `CN1C(=O)[C@@](O)(C#Cc2cccc(-c3nc(C(N)=O)n4ccccc34)c2)[C@@H]2C[C@@H]21` [1-(3-(((1 S,4S,5R)-4-hydroxy-2-methyl-3-oxo-2-azabicyclo[3.1.0]hexan-4-yl)ethynyl)phenyl)imidazo[1,5-a]pyridine-3-carboxamide], “no measurable inhibition”.

Broadly, the IC50 is the concentration needed to halve the response being measured. A lower IC50 goes with greater potency. As usually defined, the Ki is the dissociation constant of the complex between target and ligand, obtained from inhibition or displacement.
